Measured values as given in a melting point compilation (Tetko et al.).

| SMILES | melting point [°C] |
| --- | --- |
| NC(=O)OCC(O)COc1ccc(Cl)cc1 (stereo not drawn) | 90 |
| O=C(O)CCCCc1cccs1 | 41 |
| Nc1cc(F)ccc1C(F)(F)F | 31 |
| CCCCCCCCCCOc1ccc(/N=N/c2ccc(CCCC)cc2)cc1 | 55.5 to 74 |
| Nc1ccc(C(F)(F)F)cc1N | 56 to 58 |
| O=[N+]([O-])c1ccccc1N1CSc2nnc(-c3cccnc3)n2C1 | 159 |
| CCN(CC)C(=O)C(Cl)(Cl)Cl | 27 |
| O=C1CCC(=O)CC1 | 78 |
| Cn1nc(CCl)c2ccccc21 | 62 to 63 |
| C=COC(=O)CCCCCCCCCCCCCCCCC | 36 |
| CC(=O)N1C(=O)Cc2cc3c(cc21)N(C(C)=O)C(=O)C3 | 295 |
| Fc1ccc(-n2cc[nH]c2=S)cc1 | 207 to 209 |
| CCCCCCCCc1ccc(NC(=O)Oc2ccc(OC)cc2)cc1 | 133 |
| Nc1[nH]c(=O)[nH]c(=O)c1N=O | 280 |
| CCCC(=O)N(CSP(=S)(OC)OC)c1ccccc1Cl | 42 |
| CCSc1nnn[nH]1 | 88 to 89 |
| CC(=O)c1c(F)ccc(F)c1C(=O)O | 86 |
| NCc1ccc(S(N)(=O)=O)cc1 | 151 |
| CC(=O)Nc1cc(NC(C)=O)c(C=Cc2ccccc2)c(NC(C)=O)c1C=Cc1ccccc1 | 330 |
| Nc1ccc(C(F)(F)F)cc1 | 38 |
| CC(O)CCO (stereo not drawn) | -54 |

| SMILES | melting point [°C] |
| --- | --- |
| Cc1ccc(-n2c(C)nc3cc([N+](=O)[O-])ccc32)cc1 | 152 |
| CC1CCC(C(C)C)C(OC(=O)C(C)O)C1 (single isomer, unassigned; (-)) | 40 |
| COc1ccc(N=C=S)cc1OC | 48 |
| CC1CN1 (stereo not drawn) | -65 |
| CN(C)CCCCN(C)C | -100 |
| N#CCc1cccc(CC#N)c1F | 75 to 77 |
| FC(Cl)C(F)(F)C(F)(F)Cl (stereo not drawn) | -97 |
| O=C1CC[C@H](C(=O)O)O1 | 69 to 72 |
| COc1ccc(C=CC(=O)OCCOc2ccc(C=CC(=O)c3ccccc3)cc2)cc1 | 142 |
| CC(=O)c1ccc(-c2cccc([N+](=O)[O-])c2)cc1 | 108 |
| C=CCc1cc(C=O)c(O)c(OC)c1 | 48 to 52 |
| O=S(=O)(O)CCCN1CCN(CCO)CC1 | 231 |
| CCC1(C)C=C/C(=N\NS(=O)(=O)c2ccc(C)cc2)CC1 (stereo not drawn) | 159 to 169 |
| OC(C#CC#CC(O)(c1ccccc1)c1ccccc1Cl)(c1ccccc1)c1ccccc1Cl (single isomer, unassigned; (+)) | 130 to 133 |
| CC(=O)OC12COC1CC(O)C1(C)C(=O)C(O)C3=C(C)C(O)CC(O)(C(OC(=O)c4ccccc4)C21)C3(C)C (stereo not drawn) | 231 to 236 |
| CC12CCC(=O)CC1CCC13OC14CCC(=O)C4(C)CCC23 (stereo not drawn) | 171 to 173 |
| COc1ccc2c(c1)CCC1C2CCC2(C)C(=O)C(Cl)CC12 (stereo not drawn) | 180 |
| Cc1ccc(C(=O)CCC(=O)O)cc1 | 129 |
| O=C(CCl)Oc1ccccc1 | 44.5 |
| CCOC(CN)OCC | -78 |
| O=C(c1ccc(Br)cc1)c1noc(-c2ccc([N+](=O)[O-])cc2)c1S(=O)(=O)c1ccccc1 | 200 to 202 |

| SMILES | melting point [°C] |
| --- | --- |
| O=C1NC2CCCC12 (stereo not drawn) | 45 to 50 |
| COc1c(F)cc(CBr)cc1F | 41 |
| CSC(SC)=C(C#N)C#N | 82 to 84 |
| Cc1cccnc1NC(=O)C(C(F)(F)F)C(F)(F)F | 181 |
| O=C(O)c1ccc2c(c1)OCCO2 | 133 to 137 |
| O=C(O)c1ccc(F)cc1Cl | 185 |
| N#CCc1ccc(OS(=O)(=O)c2cc(Cl)cc(Cl)c2)cc1 | 81 to 83 |
| O=[N+]([O-])c1c(Cl)cccc1-c1c[nH]cc1Cl | 124 |
| CC1(O)CC(c2ccccc2)C([N+](=O)[O-])C(c2ccccc2N)O1 (stereo not drawn) | 148 |
| CCN1CC2(COC)CCC(O)C34C5CC6C(OC)CC(O)(C5C6OC)C(O)(C(OC)C23)C14 (stereo not drawn) | 214 |
| CCN=C=S | -5.9 |
| COc1cc(NC(=S)NN)cc(OC)c1OC | 178 to 179 |
| FC(F)(F)C(F)(C(F)(F)F)C(F)(C(F)(F)F)C(F)(F)F | -16.7 |
| O=C(O)Cc1ccc(Cl)cc1C(F)(F)F | 89 |
| OC(c1ccc(-c2ccc(C(O)(C(F)(F)F)C(F)(F)F)cc2)cc1)(C(F)(F)F)C(F)(F)F | 125 to 126 |
| O=Cc1ccc(N2CCOCC2)cc1 | 66 |
| Cc1c(C)c(C)c(Br)c(Br)c1C | 72 |
| C[C@]12CC[C@H]3O[C@H]3[C@@H]1CC[C@@H]1[C@@H]2CC[C@]2(C)C(=O)CC[C@@H]12 | 158 |
| O=C(Oc1cccc(N=[N+]([O-])c2cccc(OC(=O)c3ccccc3)c2)c1)c1ccccc1 | 175 |
| CCCC(C)(C)C(=O)Nc1ccc(Cl)cc1 | 87.5 |
| NNC(=O)c1ccccc1 | 115 |

| SMILES | melting point [°C] |
| --- | --- |
| Cc1c(NN=C2C(=O)NN=C2c2c(O)c3ccccc3n(C)c2=O)c(=O)n(-c2ccccc2)n1C | 200 |
| CNC(C)=C(C(=O)OC)C(=O)c1cc(Cl)nc(Cl)c1 | 112 to 115 |
| N#CC1OCC(OC(=O)c2ccccc2)C(OC(=O)c2ccccc2)C1OC(=O)c1ccccc1 (stereo not drawn) | 155 |
| O=[N+]([O-])C1CCCCC1 | -34 |
| O=C1CC(c2cccc(C3=NOC(=O)C3)c2)=NO1 | 190 |
| Clc1cc2c(cc1Cl)Oc1cc(Br)c(Br)cc1O2 | 316 |
| Brc1c(Br)c(Br)c(Br)c(Br)c1Br | 326 |
| CC1OC(n2ccc(NC(=O)c3ccc(NC(=O)C(C)(N)CO)cc3)nc2=O)CCC1OC1OC(C)C(N(C)C)C(O)C1O (stereo not drawn) | 167 |
| COC(=O)C1=C(C)NC(=S)NC1c1ccc([N+](=O)[O-])cc1 (stereo not drawn) | 175 |
| CC(=O)OCc1ccc(C=O)o1 | 52 to 56 |
| CC1C(c2ccc(Cl)cc2)SC(=O)N1C(=O)NC1CCCCC1 (stereo not drawn) | 108 |
| O=C(O)C=Cc1ccc(Sc2ccc(Br)cc2)c([N+](=O)[O-])c1 | 232 to 234 |
| CCOC(=O)CC(=O)C(F)(F)F | -39 |
| CSC(SC)SC | 16 |
| CCCCc1ccc(O)cc1 | 22 |
| CC(=O)N1CCc2cccc(N)c21 | 157 to 160 |
| NS(=O)(=O)c1ccc(SCCCCO)s1 | 48.5 |
| CC(O)CN(CCO)CCO (stereo not drawn) | 31.5 to 36 |
| NC(=S)c1ccsc1 | 96 to 98 |
| O=C1C(=Cc2ccco2)SC(=S)N1CN1CCCCC1 | 120 to 121 |

Further lines, results first:

| melting point [°C] | SMILES |
| --- | --- |
| 115 to 125 | O=c1[nH]c2ccccc2n1CCCCl |
| 223 to 229 | Clc1ccc2[nH]c(C(Cl)(Cl)Cl)nc2c1 |
| 112 to 114 | NNC(=S)NCCc1ccccc1 |
| 151 | NC(=O)OCC(COC(N)=O)c1ccccc1 |
| 131 | Ic1ccc(-n2cccc2)cc1 |
| 165 to 166 | O=c1on(-c2ccccc2)c(Br)c1-c1ccccc1 |
| 51 to 54 | Ic1cccc(Cn2cccn2)c1 |
| 241 | O=C1COc2cc(O)ccc21 |
| 247 to 249 | Cc1c(-c2ccccc2)sc2ncnc(O)c12 |
| 189 | O=C(Cn1ccnc1[N+](=O)[O-])NCc1ccccc1 |
| 220 to 222 | NC(=O)c1sc(Nc2ccc(Cl)cc2)nc1N |
| 231 to 234 | O=Cc1ccc(-c2cncc(C(=O)O)c2)cc1 |
| 65 | Cc1ccc(C(c2ccc(C)o2)c2ccccc2O)o1 |
| 177 | OC[C@H]1O[C@@H](Oc2ccccc2)[C@H](O)[C@@H](O)[C@@H]1O |
| 67 to 68 | CC(=O)c1sc(-c2ccccc2)nc1C |
| 269 to 270 | CCOC(=O)c1cn[nH]c1NC(=O)Nc1ccc(Cl)c(Cl)c1 |
| 60 to 61 | O=C(Cl)Cc1ccc2ccccc2c1 |
| 71 | CC(=O)OC1OC(=O)c2ccccc21 (stereo not drawn) |
| 103 | c1ccc(-c2cc3ccccc3cn2)cc1 |
| 41 to 42 | Cn1nc(CCl)cc1-c1cccs1 |
| 58 | c1ccc(SSc2ccccn2)nc1 |
| 143 to 144 | Cc1cc(C)c(CC(=NOCC(=O)O)c2cc3ccccc3o2)c(C)c1 |
| 155 to 157 | Cc1cccc2c(O)noc12 |

| melting point [°C] | SMILES |
| --- | --- |
| 59 to 63 | CC(O)C(c1ccccc1)c1ccccc1 (stereo not drawn) |
| 44 | Cc1oc(-c2ccccc2)cc1-c1ccccc1 |
| 108 | Nc1cccc2cc3ccccc3nc12 |
| 60 to 61 | O=Cc1cc(-c2ccco2)on1 |
| 284 | CSc1nc2[nH]c(=S)n(-c3ccccc3C(=O)O)c(=O)c2n1C |
| 42 to 44 | CC(=O)c1ccc(F)c(Cl)c1 |
| -5 | CCCCCCCCCCCc1ccccc1 |
| 253 | N#C/C(=C/c1cccnc1)c1nc(-c2ccc(Cl)cc2)cs1 |
| 165 to 172 | OCc1nc2ccccc2[nH]1 |
| 159 | Cc1ccc2nc3c(ccc4ccccc43)c(C)c2c1 |
| 91 | O=S(=O)(O)c1ccc2ccccc2c1 |
| 129 | Cn1cc2cc([N+](=O)[O-])ccc2n1 |
| 82 to 84 | CN(C)S(=O)(=O)c1cccc(C(=O)c2ccccc2)c1 |
| -34 | C=Cc1ccc(C)cc1 |
| 138 | O/N=C(\Cc1ccccc1)c1ccc2c3c(cccc13)CC2 |
| 150 | CCC(=O)c1ccc(O)cc1 |
| 45.5 | O=S(=O)(Oc1ccc(Cl)cc1Cl)c1ccccc1 |
| 188 | O=C1CC(c2ccccc2)Oc2cc(O)ccc21 (stereo not drawn) |
| 40 to 44 | O=[N+]([O-])c1ccccc1OCCBr |
| 61 | Cc1ccc2ccc(C)nc2c1 |
| 245 | Cn1c(/C(C#N)=N/Nc2cc(Cl)ccc2Cl)nc2ccccc21 |
| 93 to 94 | Oc1ccc2ccccc2c1CN1CCCCC1 |
